In publication PMC9253294, “Differential Activation of TRPM8 by the Stereoisomers of Menthol” (Frontiers in Pharmacology, 2022):

How the values were obtained:
mouse TRPM8 = target: T1, mouse TRPM8 (Mus musculus, UniProt Q8R4D5); experiment: Whole-cell patch-clamp recordings of wild-type TRPM8 in transfected HEK293T cells; type: cell-based; settings: for maximum current activated: −80 mV, normalized to 2 mM (−)-menthol; for EC50: WT TRPM8, whole-cell, ~25°C
T1 construct: expressed in transfected cells; host or cells: HEK293T
Protocol: (§1) Murine TRPM8 was used in this study. […] Point mutations were made by Fast Mutagenesis Kit V2 (SBS Genetech). Primers were used to generate point mutations.
(§2) HEK293T cells were cultured in Dulbecco’s modified eagle medium supplemented (DMEM) with 10% fetal bovine serum and 1% penicillin-streptomycin solution at 37°C with 5% CO2. When cells grow up to 60%–70%, plasmids were transfected with lipofectamine 2000 following the manufacturer’s protocol. Patch-clamp recordings were performed 18–24 h after transfection.
(§3) Patch-clamp recordings were performed using a HEKA EPC10 amplifier driven by PatchMaster software (HEKA). Patch pipettes were prepared from borosilicate glass and fire-polished to a resistance of 4–6MΩ. A solution (pH 7.25) containing 130 mM NaCl, 0.2 mM EDTA, and 3 mM HEPES was used in both bath and pipette for recording. For whole-cell recording, cells were detached by trypsin and plated on the microscope cover glass for 30–60 min before the experiment. Transfected cells could be identified by green fluorescence. Cells were clamped at +80 mV and −80 mV for 350 ms, respectively, during recording, and the average current in the last 40 ms was performed. All recordings were performed at room temperature (∼25°C).
To perfuse (−)-menthol and other isomers during the patch-clamp recording, a rapid solution changer with a gravity-driven perfusion system was used (RSC-200, Bio-Logic). Each solution was delivered through a separate tube, so there was no mixing of solutions. The pipette tip was placed right in front of the perfusion outlet during recording to ensure the solution exchange was complete.
Data from whole-cell recordings were analyzed in Igor Pro (WaveMatrix). EC50 values were derived from fitting a Hill equation to the concentration–response relationship. Changes in EC50 by point mutation may be caused by either perturbation of ligand binding or channel gating or both. To distinguish these possibilities, the dissociation constant (K d) for ligand binding is estimated assuming the following gating scheme: C0↔KdC1↔LO, where L is the equilibrium constant for the final closed-to-open transition.
For TRPM8 activation by other stereoisomers, P o max was measured from the concentration–response curve and L was determined from P o max by L = P o max/(1 − P o max). Both K d and L contribute to the measured apparent affinity by the equation EC50 = K d/(1 + L).

[1] = test system: residue I846 in the S4 of TRPM8; experiment: Thermodynamic mutant cycle analysis (TMCA) with patch-clamp recordings, residue I846 (I846V mutant); type: cell-based, mouse; settings: WT vs I846V
Protocol: as §1, §2
as §3, with “All recordings were performed at room temperature (∼25°C).” left out
(§4) Data from whole-cell recordings were analyzed in Igor Pro (WaveMatrix). […]
(§5) The P o of mouse TRPM8 activated by (−)-menthol was measured through single-channel recordings as in our previous study ([Xu et al., 2020]), and P o of TRPM8 mutant channels activated by (−)-menthol was estimated from noise analysis through whole-cell recordings. The mean current amplitude (I), the squared deviations in current amplitude from the mean value (σ ^2), and the single-channel current (i) were measured experimentally from a membrane patch of ion channels. Then, the number of ion channels clamped into that patch (N) is determined as N=I^2/i⋅I−σ^2.
For TRPM8 activation by other stereoisomers, P o max was measured from the concentration–response curve and L was determined from P o max by L = P o max/(1 − P o max). Both K d and L contribute to the measured apparent affinity by the equation EC50 = K d/(1 + L). […]

[2] = design: method as in Hopp, 1993; Barel et al., 2009; settings: human taste dilution studies; ref Hopp, 1993; Barel et al., 2009; cited from earlier work
[3] = test system: residue D802 in the S3 of TRPM8; experiment: Thermodynamic mutant cycle analysis (TMCA) with patch-clamp recordings, residue D802; type: cell-based, mouse; settings: cycle (−)-menthol vs (+)-neomenthol, WT vs D802 mutant
Protocol: as §1, §2
Patch-clamp recordings were performed using a HEKA EPC10 amplifier driven by PatchMaster software (HEKA). […] Transfected cells could be identified by green fluorescence. […]
as §4
as §5, with “N=I^2/i⋅I−σ^2. […]” for “N=I^2/i⋅I−σ^2.”

TRPM8 R842K mutant = target: T2, TRPM8 R842K mutant (Mus musculus, UniProt Q8R4D5, R842K); experiment: Whole-cell patch-clamp recordings of the R842K mutant channel; type: cell-based; settings: −80 mV
T2 construct: expressed in transfected cells; host or cells: HEK293T
Protocol: as §1, §2, §3
To perfuse (−)-menthol and other isomers during the patch-clamp recording, a rapid solution changer with a gravity-driven perfusion system was used (RSC-200, Bio-Logic). […]

[4] = +80 mV, compared to (−)-menthol

T1 sequence (Q8R4D5 whole entry): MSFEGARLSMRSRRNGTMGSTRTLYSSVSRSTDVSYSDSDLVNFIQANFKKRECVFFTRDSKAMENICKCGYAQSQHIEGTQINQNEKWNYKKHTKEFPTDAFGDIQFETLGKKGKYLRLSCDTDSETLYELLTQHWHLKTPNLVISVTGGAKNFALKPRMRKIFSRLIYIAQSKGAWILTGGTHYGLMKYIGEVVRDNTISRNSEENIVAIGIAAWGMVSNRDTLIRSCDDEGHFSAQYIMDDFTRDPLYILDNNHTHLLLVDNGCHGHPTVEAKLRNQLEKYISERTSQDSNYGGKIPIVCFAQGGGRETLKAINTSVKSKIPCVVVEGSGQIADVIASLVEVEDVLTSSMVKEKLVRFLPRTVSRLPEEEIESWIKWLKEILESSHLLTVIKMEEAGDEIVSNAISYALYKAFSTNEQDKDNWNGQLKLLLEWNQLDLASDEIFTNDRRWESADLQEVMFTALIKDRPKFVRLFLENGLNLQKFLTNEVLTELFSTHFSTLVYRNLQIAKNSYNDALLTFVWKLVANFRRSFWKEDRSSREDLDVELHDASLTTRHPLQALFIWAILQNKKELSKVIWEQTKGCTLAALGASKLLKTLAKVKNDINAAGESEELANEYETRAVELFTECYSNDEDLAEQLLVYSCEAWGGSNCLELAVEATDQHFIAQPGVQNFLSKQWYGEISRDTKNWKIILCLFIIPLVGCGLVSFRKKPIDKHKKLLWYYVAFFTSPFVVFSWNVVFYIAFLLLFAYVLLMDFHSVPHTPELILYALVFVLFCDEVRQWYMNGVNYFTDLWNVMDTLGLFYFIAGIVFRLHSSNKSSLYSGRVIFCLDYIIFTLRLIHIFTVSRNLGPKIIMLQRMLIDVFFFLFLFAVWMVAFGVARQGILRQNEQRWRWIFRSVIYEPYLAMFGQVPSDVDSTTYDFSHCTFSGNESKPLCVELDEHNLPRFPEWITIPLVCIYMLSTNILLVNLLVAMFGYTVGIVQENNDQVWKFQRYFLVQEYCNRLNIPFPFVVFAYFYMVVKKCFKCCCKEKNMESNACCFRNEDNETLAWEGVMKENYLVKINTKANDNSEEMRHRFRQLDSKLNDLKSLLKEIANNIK
T2 sequence (Q8R4D5 whole entry R842K): as the sequence (Q8R4D5 whole entry) above, with R842K counted along it

Row | Structure (SMILES) | Kd (binding affinity from gating scheme) (mouse TRPM8; [4]) | maximum current activated (mouse TRPM8) | coupling energy ([1]; +80 mV, cycle (−)-menthol vs (+)-neoisomenthol) | coupling energy ([1]; −80 mV, cycle (−)-menthol vs (+)-neoisomenthol) | cooling thresholds [2] | coupling energy ([3]; +80 mV) | coupling energy ([3]; −80 mV) | L value (gating equilibrium constant) (mouse TRPM8; [4]) | EC50 (mouse TRPM8; +80 mV) | activation of the R842K mutant (TRPM8 R842K mutant) | coupling energy ([1]; ±80 mV, cycle (−)-menthol vs (+)-neomenthol, threshold 1.5 kT)
1 | CC(C)[C@H]1CC[C@@H](C)C[C@H]1O [(+)-neoisomenthol] | slightly decreased affinity | much reduced | 3.25 ± 0.11 kT | 3.10 ± 0.18 kT | much higher cooling thresholds | – | – | – | – | – | –
2 | CC(C)[C@@H]1CC[C@@H](C)C[C@@H]1O [(+)-neomenthol] | slightly decreased affinity | much reduced | – | – | – | 1.81 ± 0.10 kT | 2.12 ± 0.06 kT | significantly reduced | 206 ± 11.4 µM | cannot activate | large coupling energy values
3 | CC(C)[C@@H]1CC[C@@H](C)C[C@H]1O [(−)-menthol] | – | – | – | – | lowest cooling thresholds | – | – | – | 62.6 ± 1.2 µM | – | –
